Results from US11547644B2, “Emulsions comprising cationic emulsifiers based on MDIPA ester quats” (Evonik Operations GmbH, priority 2015, dated 2023).

Key:
[1] = Biodegradability in water, OECD 301
Description: (§1) Consequently, an emulsifier according to the invention (Example 2) was investigated compared to distearyldimonium chloride with the help of various OECD tests.

Daphnia Magna = Daphnia Magna Reproduction Test (OECD 211); settings: in vivo
Description: as §1

[2] = tested on: invertebrate aquatic animals; test: Acute Immobilization Test (OECD 202); assay type: in vivo
Description: as §1

**Q.** For `CCCCCCCCCCCCCCCCCC[N+](C)(C)CCCCCCCCCCCCCCCCCC.[Cl-]` [Distearyldimonium Chloride], which Biodegradability in water [1] is on record?
**A.** OECD 301: 3% (28 d)

**Q.** What about the “Long-term toxicity towards invertebrate aquatic animals, NOEC(21 d)” value (Daphnia Magna) of the same compound?
**A.** NOEC(21 d) = 0.38 mg/l

**Q.** What about the “Short-term toxicity towards invertebrate aquatic animals, EC50(48h)” value [2] of the same compound?
**A.** EC-50(48h) = 0.16 mg/l
